Source: patent publication US20100227845A1, “SUBSTITUTED 1,2,4-OXADIAZOLES AND ANALOGS THEREOF AS CB2 RECEPTOR MODULATORS, USEFUL IN THE TREATMENT OF PAIN, RESPIRATORY AND NON-RESPIRATORY DISEASES” (priority 2007, published 2010)
Where two headings read alike, the source gives them in different places.

Legend:
[1] = biological target: human CB2 (Homo sapiens, UniProt P34972); assay: Cyclic AMP assay (HTRF), CHO cells expressing human CB2; assay type: cell-based
Protocol: (§1) Chinese Hamster Ovary cells (CHO) expressing human CB1 or human CB2 (3.3×10^5 cells/ml) were preincubated for 15 min at room temperature with tested agonist and 3-isobutyl-1-methylxanthine (IBMX; 200 μM) in phosphate buffered saline containing 1 mg/ml BSA (assay buffer) followed by 30 min incubation with forskolin in a total volume of 10 μl. The optimal forskolin concentration for each cell line was established in a separate experiment and adjusted to stimulate 70% of maximal cAMP response. cAMP content was measured using an HTRF assay (CisBio) according to the manufacturer's two step protocol.

[2] = biological target: human CB1 (Homo sapiens, UniProt P21554); assay: Cyclic AMP assay (HTRF), CHO cells expressing human CB1; assay type: cell-based
Protocol: as §1

[3] = IP of tested agonist, CHO cells expressing human CB2, forskolin-stimulated cAMP, HTRF, read-out: CB2 (HTRF)
[4] = IP of tested agonist, CHO cells expressing human CB1, forskolin-stimulated cAMP, HTRF, read-out: CB1 (HTRF)

Sequence of human CB1 (P21554 whole entry): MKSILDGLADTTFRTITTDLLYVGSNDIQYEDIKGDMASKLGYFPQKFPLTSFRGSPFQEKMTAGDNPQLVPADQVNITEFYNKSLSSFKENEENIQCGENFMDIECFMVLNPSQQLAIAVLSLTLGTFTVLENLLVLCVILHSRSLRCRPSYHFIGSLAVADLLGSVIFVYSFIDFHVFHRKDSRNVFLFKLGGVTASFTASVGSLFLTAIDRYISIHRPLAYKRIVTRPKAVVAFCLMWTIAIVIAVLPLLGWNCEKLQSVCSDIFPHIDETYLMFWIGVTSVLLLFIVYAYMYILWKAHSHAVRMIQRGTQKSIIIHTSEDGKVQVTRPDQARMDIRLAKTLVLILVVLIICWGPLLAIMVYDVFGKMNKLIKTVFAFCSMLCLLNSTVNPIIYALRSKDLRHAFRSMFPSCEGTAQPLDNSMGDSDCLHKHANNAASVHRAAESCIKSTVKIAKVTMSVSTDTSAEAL
Sequence of human CB2 (P34972 whole entry): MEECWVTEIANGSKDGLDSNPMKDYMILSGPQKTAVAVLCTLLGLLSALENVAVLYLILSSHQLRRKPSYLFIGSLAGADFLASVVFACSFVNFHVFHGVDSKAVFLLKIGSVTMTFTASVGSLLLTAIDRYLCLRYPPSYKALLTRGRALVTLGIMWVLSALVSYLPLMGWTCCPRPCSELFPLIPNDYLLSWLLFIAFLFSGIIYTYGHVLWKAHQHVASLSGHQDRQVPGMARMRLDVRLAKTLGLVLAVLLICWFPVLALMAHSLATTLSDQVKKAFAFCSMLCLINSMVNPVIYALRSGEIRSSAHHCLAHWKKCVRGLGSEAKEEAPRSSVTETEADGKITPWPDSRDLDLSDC

EC50 [1, 3] [nM] | EC50 [2, 4] [nM] | SMILES | EC50 [1] [nM] | EC50 [2] [nM]
272 | > 17000 | COCCOc1ncccc1-c1nc(-c2cccc(Cl)c2)no1 [II-2] |  | 
900 | > 17000 | CCCCOc1ncccc1-c1nc(-c2ccccc2)c[nH]1 [III-2] |  | 
 |  | CCCCOc1ncccc1-c1nc(-c2cccc(Cl)c2Cl)no1 [Example I-4] | 3 | 309
109 | > 17000 | CCCCOc1ncccc1-c1nc(-c2ccc(C(F)(F)F)cc2)c[nH]1 [III-3] |  | 
110 | > 17000 | CCCCOc1ncccc1-c1nc2ccccc2[nH]1 [IV-2] |  | 
258 | > 17000 | N#Cc1ccc(-c2ncccc2-c2nc3cc(Cl)c(Cl)cc3[nH]2)cc1 [IV-5] |  | 
 |  | CCCCOc1ncccc1-c1nc(-c2ccc(Cl)cc2)no1 [Example I-3] | 85 | > 17000
 |  | CCCCOc1ncccc1-c1nc(-c2c(Cl)cccc2Cl)no1 [Example I-5] | 4 | 114
717 | > 17000 | NC(=O)C1CCN(c2ncccc2-c2cc(-c3cccc(F)c3)n[nH]2)CC1 [Example V-5] |  | 
68 | 8750 | CS(=O)(=O)C1CCN(c2ncccc2-c2cc(-c3cccc(F)c3)n[nH]2)CC1 [Example V-4] |  | 

SMILES | EC50 [1, 3] [nM] | EC50 [2, 4] [nM] | EC50 [1] [nM] | EC50 [2] [nM]
CC(C)(C)COc1ncccc1-c1nc(-c2cccc(Cl)c2)no1 [II-5] | 508 | > 17000 |  | 
